Like-named read-outs stand apart in the source and are kept apart here.
Tests used:
[1] = test system: HIV1 strain NL4-3; assay type: cell-based; conditions: for HIV1 Norm MEAN: normalized mean of HIV1 replication readout
[2] = test system: HCV replicon; assay type: cell-based; conditions: normalized mean of HCV replicon readout
[3] = test system: F. novicida (strain U112); assay type: cell-based
[4] = test system: influenza A H1N1 virus; conditions: 48 hr post-treatment, A549
[5] = test system: EBV; conditions: normalized mean of EBV replication readout

SKMQL [CPEP150]
HIV1 Norm MEAN [1]: 1.8032
HCV Norm MEAN [2]: 0.2118
Francisella novicida Norm AUC [3]: 0.5976
Neuraminidase activity normalized to vehicle ([4]; 200 µM peptide): 1,0149
Neuraminidase activity normalized to vehicle ([4]; 0,823 µM peptide): 0,912
Neuraminidase activity normalized to vehicle ([4]; 22,2 µM peptide): 0,9305
Neuraminidase activity normalized to vehicle ([4]; 2,4691 µM peptide): 0,7746
Neuraminidase activity normalized to vehicle ([4]; 7,4074 µM peptide): 0,8703
Neuraminidase activity normalized to vehicle ([4]; 66,6667 µM peptide): 0,9907
EBV Norm MEAN [5]: 1.198

SLQYLALAALITPKK [CPEP46]
HIV1 Norm MEAN ([1]; peptide screen): 2.169
HCV Norm MEAN ([2]; peptide screen): 0.6647
Francisella novicida Norm AUC [3]: 0.3644
Neuraminidase activity normalized to vehicle ([4]; 200 µM peptide): 0,1529
Neuraminidase activity normalized to vehicle ([4]; 0,823 µM peptide): 0,9309
Neuraminidase activity normalized to vehicle ([4]; 22,2 µM peptide): 0,9118
Neuraminidase activity normalized to vehicle ([4]; 2,4691 µM peptide): 1,043
Neuraminidase activity normalized to vehicle ([4]; 7,4074 µM peptide): 1,0188
Neuraminidase activity normalized to vehicle ([4]; 66,6667 µM peptide): 0,8482
EBV Norm MEAN ([5]; peptide screen): 0.9835

SVWIPVNEGASTSGM [CPEP77]
activity in HIV1 screen (in words) ([1]; 20 µM peptide, HeLa P4 cells, β-galactosidase): most potent anti-HIV1 peptide
HIV1 Norm MEAN ([1]; peptide screen): 0.1545
HCV Norm MEAN ([2]; peptide screen): 0.6626
Francisella novicida Norm AUC [3]: 1.232
Neuraminidase activity normalized to vehicle ([4]; 200 µM peptide): 0,8793
Neuraminidase activity normalized to vehicle ([4]; 0,823 µM peptide): 0,7817
Neuraminidase activity normalized to vehicle ([4]; 22,2 µM peptide): 0,9377
Neuraminidase activity normalized to vehicle ([4]; 2,4691 µM peptide): 0,8942
Neuraminidase activity normalized to vehicle ([4]; 7,4074 µM peptide): 0,7709
Neuraminidase activity normalized to vehicle ([4]; 66,6667 µM peptide): 0,8131
EBV Norm MEAN ([5]; peptide screen): 1.026

TGERDW [CPEP119]
HIV1 Norm MEAN [1]: 0.9503
HCV Norm MEAN [2]: 0.3105
Francisella novicida Norm AUC [3]: 1.661
Neuraminidase activity normalized to vehicle ([4]; 200 µM peptide): 0,8047
Neuraminidase activity normalized to vehicle ([4]; 0,823 µM peptide): 0,8876
Neuraminidase activity normalized to vehicle ([4]; 22,2 µM peptide): 0,8371
Neuraminidase activity normalized to vehicle ([4]; 2,4691 µM peptide): 0,7125
Neuraminidase activity normalized to vehicle ([4]; 7,4074 µM peptide): 0,8133
Neuraminidase activity normalized to vehicle ([4]; 66,6667 µM peptide): 0,8609
EBV Norm MEAN [5]: 0.6578

TGGER [CPEP30]
HIV1 Norm MEAN [1]: 1.255
HCV Norm MEAN [2]: 0.2042
Francisella novicida Norm AUC [3]: 0.8411
Neuraminidase activity normalized to vehicle ([4]; 200 µM peptide): 0,9647
Neuraminidase activity normalized to vehicle ([4]; 0,823 µM peptide): 0,957
Neuraminidase activity normalized to vehicle ([4]; 22,2 µM peptide): 0,923
Neuraminidase activity normalized to vehicle ([4]; 2,4691 µM peptide): 0,8714
Neuraminidase activity normalized to vehicle ([4]; 7,4074 µM peptide): 0,8974
Neuraminidase activity normalized to vehicle ([4]; 66,6667 µM peptide): 0,9486
EBV Norm MEAN [5]: 0.8583

TIESEV [CPEP59]
HIV1 Norm MEAN [1]: 0.5804
HCV Norm MEAN [2]: 0.1611
Francisella novicida Norm AUC [3]: 0.4462
inhibition of PI incorporation in F. novicida infected BMDMs (in words) [3]: one of the most potent virus-derived peptides to inhibit PI incorporation
Neuraminidase activity normalized to vehicle ([4]; 200 µM peptide): 1,1965
Neuraminidase activity normalized to vehicle ([4]; 0,823 µM peptide): 1,1044
Neuraminidase activity normalized to vehicle ([4]; 22,2 µM peptide): 1,0974
Neuraminidase activity normalized to vehicle ([4]; 2,4691 µM peptide): 1,0801
Neuraminidase activity normalized to vehicle ([4]; 7,4074 µM peptide): 1,0995
Neuraminidase activity normalized to vehicle ([4]; 66,6667 µM peptide): 1,0953
EBV Norm MEAN [5]: 1.967

TRVESENKVVILDSFD [CPEP93]
HIV1 Norm MEAN ([1]; peptide screen): 10.6718
HCV Norm MEAN ([2]; peptide screen): 0.8288
Francisella novicida Norm AUC [3]: 0.7068
Neuraminidase activity normalized to vehicle ([4]; 200 µM peptide): 1,1147
Neuraminidase activity normalized to vehicle ([4]; 0,823 µM peptide): 1,1071
Neuraminidase activity normalized to vehicle ([4]; 22,2 µM peptide): 1,1929
Neuraminidase activity normalized to vehicle ([4]; 2,4691 µM peptide): 1,0829
Neuraminidase activity normalized to vehicle ([4]; 7,4074 µM peptide): 1,1322
Neuraminidase activity normalized to vehicle ([4]; 66,6667 µM peptide): 1,0883
EBV Norm MEAN ([5]; peptide screen): 1.069

TYGTC [CPEP97]
HIV1 Norm MEAN [1]: 0.8497
HCV Norm MEAN [2]: 0.1345
Francisella novicida Norm AUC [3]: 0.4338
Neuraminidase activity normalized to vehicle ([4]; 200 µM peptide): 0,8478
Neuraminidase activity normalized to vehicle ([4]; 0,823 µM peptide): 0,83
Neuraminidase activity normalized to vehicle ([4]; 22,2 µM peptide): 0,836
Neuraminidase activity normalized to vehicle ([4]; 2,4691 µM peptide): 0,6842
Neuraminidase activity normalized to vehicle ([4]; 7,4074 µM peptide): 0,8009
Neuraminidase activity normalized to vehicle ([4]; 66,6667 µM peptide): 0,8711
EBV Norm MEAN [5]: 1.147

WGCSGKLICTTTVPW [CPEP84]
HIV1 Norm MEAN ([1]; peptide screen): 0.7328
HCV Norm MEAN ([2]; peptide screen): 0.9118
Francisella novicida Norm AUC [3]: 1.224
Neuraminidase activity normalized to vehicle ([4]; 200 µM peptide): 0,0819
Neuraminidase activity normalized to vehicle ([4]; 0,823 µM peptide): 0,9093
Neuraminidase activity normalized to vehicle ([4]; 22,2 µM peptide): 0,9299
Neuraminidase activity normalized to vehicle ([4]; 2,4691 µM peptide): 0,9765
Neuraminidase activity normalized to vehicle ([4]; 7,4074 µM peptide): 0,9455
Neuraminidase activity normalized to vehicle ([4]; 66,6667 µM peptide): 0,3888
EBV Norm MEAN ([5]; peptide screen): 0.6808

WKSKKTP [CPEP78]
HIV1 Norm MEAN [1]: 1.618
HCV Norm MEAN [2]: 0.1248
Francisella novicida Norm AUC [3]: 0.7597
Neuraminidase activity normalized to vehicle ([4]; 200 µM peptide): 0,663
Neuraminidase activity normalized to vehicle ([4]; 0,823 µM peptide): 0,9859
Neuraminidase activity normalized to vehicle ([4]; 22,2 µM peptide): 0,8841
Neuraminidase activity normalized to vehicle ([4]; 2,4691 µM peptide): 0,8283
Neuraminidase activity normalized to vehicle ([4]; 7,4074 µM peptide): 0,8644
Neuraminidase activity normalized to vehicle ([4]; 66,6667 µM peptide): 0,9037
EBV Norm MEAN [5]: 1.01

WRHRAR [CPEP113]
HIV1 Norm MEAN [1]: 0.4362
HCV Norm MEAN [2]: 0.1192
Francisella novicida Norm AUC [3]: 0.358
inhibition of PI incorporation in F. novicida infected BMDMs (in words) [3]: most
Neuraminidase activity normalized to vehicle ([4]; 200 µM peptide): 0,9723
Neuraminidase activity normalized to vehicle ([4]; 0,823 µM peptide): 0,965
Neuraminidase activity normalized to vehicle ([4]; 22,2 µM peptide): 0,979
Neuraminidase activity normalized to vehicle ([4]; 2,4691 µM peptide): 0,9338
Neuraminidase activity normalized to vehicle ([4]; 7,4074 µM peptide): 0,9116
Neuraminidase activity normalized to vehicle ([4]; 66,6667 µM peptide): 1,0465
EBV Norm MEAN [5]: 1.761

YASIL [CPEP21]
HIV1 Norm MEAN [1]: 2.264
HCV Norm MEAN [2]: 0.1905
Francisella novicida Norm AUC [3]: 0.5259
Neuraminidase activity normalized to vehicle ([4]; 200 µM peptide): 0,9829
Neuraminidase activity normalized to vehicle ([4]; 0,823 µM peptide): 0,8221
Neuraminidase activity normalized to vehicle ([4]; 22,2 µM peptide): 0,8963
Neuraminidase activity normalized to vehicle ([4]; 2,4691 µM peptide): 0,8753
Neuraminidase activity normalized to vehicle ([4]; 7,4074 µM peptide): 0,7869
Neuraminidase activity normalized to vehicle ([4]; 66,6667 µM peptide): 1,0057
EBV Norm MEAN [5]: 1.459

YFADLLI [CPEP50]
HIV1 Norm MEAN [1]: 1.681
HCV Norm MEAN [2]: 0.09464
Francisella novicida Norm AUC [3]: 0.9176
Neuraminidase activity normalized to vehicle ([4]; 200 µM peptide): 0,2471
Neuraminidase activity normalized to vehicle ([4]; 0,823 µM peptide): 0,883
Neuraminidase activity normalized to vehicle ([4]; 22,2 µM peptide): 0,8095
Neuraminidase activity normalized to vehicle ([4]; 2,4691 µM peptide): 0,771
Neuraminidase activity normalized to vehicle ([4]; 7,4074 µM peptide): 0,9007
Neuraminidase activity normalized to vehicle ([4]; 66,6667 µM peptide): 0,7183
EBV Norm MEAN [5]: 1.15

YLTDM [CPEP154]
HIV1 Norm MEAN [1]: 1.461
HCV Norm MEAN [2]: 0.1792
Francisella novicida Norm AUC [3]: 0.5909
Neuraminidase activity normalized to vehicle ([4]; 200 µM peptide): 1,0928
Neuraminidase activity normalized to vehicle ([4]; 0,823 µM peptide): 1,0316
Neuraminidase activity normalized to vehicle ([4]; 22,2 µM peptide): 1,0253
Neuraminidase activity normalized to vehicle ([4]; 2,4691 µM peptide): 0,9855
Neuraminidase activity normalized to vehicle ([4]; 7,4074 µM peptide): 1,0107
Neuraminidase activity normalized to vehicle ([4]; 66,6667 µM peptide): 1,0399
EBV Norm MEAN [5]: 1.807

YRHHY [CPEP48]
HIV1 Norm MEAN [1]: 1.395
HCV Norm MEAN [2]: 0.151
Francisella novicida Norm AUC [3]: 0.6002
Neuraminidase activity normalized to vehicle ([4]; 200 µM peptide): 1,01
Neuraminidase activity normalized to vehicle ([4]; 0,823 µM peptide): 0,9611
Neuraminidase activity normalized to vehicle ([4]; 22,2 µM peptide): 1,0228
Neuraminidase activity normalized to vehicle ([4]; 2,4691 µM peptide): 0,8941
Neuraminidase activity normalized to vehicle ([4]; 7,4074 µM peptide): 0,9555
Neuraminidase activity normalized to vehicle ([4]; 66,6667 µM peptide): 1,0901
EBV Norm MEAN [5]: 1.742

Reference: publication PMC10835127, “Viruses traverse the human proteome through peptide interfaces that can be biomimetically leveraged for drug discovery” (Proceedings of the National Academy of Sciences of the …, 2024)
